This passage reports ED50 results from ChEMBL document CHEMBL1128919, “Synthesis and characterization of cyclic ATP-ribose: a potent mediator of calcium release” (Bioorg Med Chem Lett, 1996).

The species named for this assay is Rattus norvegicus. The assay can be described thus: Half-maximal effective dose for inducing [Ca2+] release from rat brain microsomes. The class given is functional.

On to `N=c1c2ncn3c2ncn1[C@@H]1O[C@H](COP(=O)(O)OP(=O)(O)OP(=O)(O)OC[C@H]2O[C@@H]3[C@H](O)[C@@H]2O)[C@@H](O)[C@H]1O`, for which the ED50 was found to be 800 nM.
